According to PubChem BioAssay (NCI):
Where “and” joins values, the source holds several entries; their conditions need not be identical. Equal values may be shown once.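 Values below derive from 48-hour exposures of cells grown in 96-well plates, with endpoints linearly interpolated between the two concentrations bracketing the appropriate inhibition level. Here, GI50 denotes the concentration required for 50% inhibition of growth. TGI marks complete inhibition of growth.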

How the values were obtained:
Assay in all cases: DTP human tumour cell line panel, 48 h
786-0 renal = system: 786-0 renal
EKVX NSCLC = system: EKVX NSCLC
IGROV1 ovarian = system: IGROV1 ovarian
OVCAR-3 ovarian = system: OVCAR-3 ovarian
OVCAR-5 ovarian = system: OVCAR-5 ovarian
RPMI-8226 leukemia = system: RPMI-8226 leukemia
SK-MEL-5 melanoma = system: SK-MEL-5 melanoma
SNB-19 CNS = system: SNB-19 CNS
SR leukemia = system: SR leukemia
NCI/ADR-RES ovarian = system: NCI/ADR-RES ovarian

| Compound | TGI (786-0 renal) [µM] | TGI (EKVX NSCLC) [µM] | TGI (IGROV1 ovarian) [µM] | TGI (OVCAR-3 ovarian) [µM] | TGI (OVCAR-5 ovarian) [µM] | TGI (RPMI-8226 leukemia) [µM] | TGI (SK-MEL-5 melanoma) [µM] | TGI (SNB-19 CNS) [µM] | TGI (SR leukemia) [µM] | GI50 (786-0 renal) [µM] | GI50 (EKVX NSCLC) [µM] | GI50 (IGROV1 ovarian) | GI50 (OVCAR-3 ovarian) [µM] | GI50 (OVCAR-5 ovarian) [µM] | GI50 (RPMI-8226 leukemia) | GI50 (SK-MEL-5 melanoma) [µM] | GI50 (SNB-19 CNS) | GI50 (SR leukemia) [µM] | GI50 (NCI/ADR-RES ovarian) [µM] | TGI (NCI/ADR-RES ovarian) [µM] |
| --- | --- | --- | --- | --- | --- | --- | --- | --- | --- | --- | --- | --- | --- | --- | --- | --- | --- | --- | --- | --- |
| C=CC[C@H]1C[C@@]2(C)OC[C@H](C(C)C)N2C1=O | > 100 | > 100 | > 100 | > 100 | > 100 | > 100 | > 100 | > 100 | > 100 | – | – | – | – | – | – | – | – | – | – | – |
| CCCCCCCCCCC(C)CCCCCCC(=O)OCC(COP(=O)([O-])OCC[N+](C)(C)C)OC(=O)CCCCCCC(C)CCCCCCCCCC (centres undefined) | > 100 | > 100 | > 100 | > 100 | > 100 | > 100 | > 100 | > 100 | > 100 | – | – | – | – | – | – | – | – | – | – | – |
| S=c1[nH]c(=S)c2sc(=S)n(-c3ccccc3)c2[nH]1 | > 100 | > 100 | > 100 | > 100 | > 100 | > 100 | > 100 | > 100 | > 100 | – | – | – | – | – | – | – | – | – | – | – |
| C[C@@H]1O[C@@H](O[C@@H]2[C@@H](O)[C@H](OCCc3ccc(O)c(O)c3)O[C@H](COC(=O)/C=C/c3ccc(O)c(O)c3)[C@H]2O)[C@H](O)[C@H](O)[C@H]1O | > 100 | > 100 | > 100 | > 100 | > 100 | 43.4 | > 100 | > 100 | > 100 | 58.4 | 36.3 | > 100 µM | 13 | > 100 | 13.7 µM | > 100 | > 100 µM | 41.3 | – | – |
| COc1ccc(/C=C\c2cc(OC)c(OC)c(OC)c2)cc1OC(=O)C(N)CCC(=O)O (centres undefined) | – | > 100 | > 100 | – | > 100 | – | – | > 100 | – | 0.00706 | – | 0.00415 µM and 0.000539 µM and 0.000824 µM | 0.000393 | – | 0.000691 µM and < 0.0316 µM | – | 0.000828 µM and 0.000281 µM and < 0.0001 µM | 0.000532 | 0.000317 | 0.608 |
| O=C(/C=C/C=C/c1ccccc1)CCc1ccccc1 | > 100 | > 100 | > 100 | > 100 | > 100 | – | > 100 | > 100 | 63.7 | – | – | – | – | – | – | – | – | – | – | > 100 |
| C=C1CC[C@@]2(C#N)[C@H]3[C@H](CC[C@@H]2C)[C@@H](C)C[C@@H](CC(C)(C)C#N)[C@H]13 | 23.3 | 45.7 | 59.4 | 28.8 | – | 26.3 | 12.9 | 70.1 | 40.3 | 2.33 | 1.12 | 4.77 µM | 2.88 | – | 0.589 µM | 1.54 | 10.1 µM | 1.57 | 2.87 | 24.6 |
| Cc1cc(O)c(C(=O)CC2(O)C(=O)Nc3c(Cl)cc(Cl)cc32)c(=O)o1 (centres undefined) | > 100 | > 100 | > 100 | > 100 | > 100 | > 100 | > 100 | > 100 | > 100 | – | – | – | – | – | – | – | – | – | – | – |
| N#CC1=C(N)N=C(N2CCCCC2)C(C#N)C12Nc1ccccc1S2 (centres undefined) | 79.2 | 91.1 | > 100 | – | – | > 100 | 42.3 | > 100 | > 100 | 26.5 | 28.7 | 58.9 µM | – | – | 84 µM | 19.6 | 41 µM | > 100 | 20 | 68.6 |
